Series [1] concerns P. aeruginosa IFO 3445. The series is described as follows: minimum growth inhibitory concentration (MIC), standard method of Japan Chemotherapy Society. Format: cell-based. As to conditions: Pseudomonas aeruginosa. On the procedure: (§1) It should be noted that ciprofloxacin, levofloxacin,sparfloxacin and tosufloxacin which are conventional antibacterials were also evaluated for their minimum growth inhibitory concentration (MIC, μg/ml) for the purpose of comparison.

Series [2] deals with S. epidermidis IFO12293. Described as above. Format: cell-based. To be noted: Staphylococcus epidermidis. Here is the method: as §1
The subject of series [3] is S. aureus 209P. The description is as above. Format: cell-based. As to conditions: Staphylococcus aureus, read-out: minimum growth inhibitory concentration (MIC). On the procedure:
as §1

The test system of series [4] is Female ICR mice (ears). To be noted: mouse, in vivo, iv, 40 mg/kg. On the procedure: The compounds of the Examples 9, 10, 12 and 39 as described above were subjected to phototoxicity test by the procedure as described below.
Female ICR mice (5 to 6 week old) were intravenously administered with the test compound (40 mg/kg/10 ml), and irradiated with UV (320 to 400 nm, 1.8 mW/cm^2 /sec) for 4 hours. Abnormality in the ears was monitored at 0 hour (immediately after the irradiation) and after 24 and 48 hours. The ear abnormality was evaluated by the following is criteria: no abnormality (0 point), very slight erythema (1 point), well defined erythema (2 points), moderate to severe erythema and edema formation (3 points). Tosufloxacin which is a conventional known antibacterial agent was also tested in a similar way for the purpose of comparison.

[5] abbreviates: IFO3445, P. aeruginosa IFO 3445, read-out: minimum growth inhibitory concentration (MIC).
[6] abbreviates: S. epidermidis IFO12293, read-out: minimum growth inhibitory concentration (MIC).

Converted amounts (≈) assume the structure as drawn. Where a name gives a salt, the structure may show the parent alone. Read-outs that look alike come from different tables or passages of the source.

As to `O=C(O)c1cn(C2CC2)c2cc(N3CCNCC3)c(F)cc2c1=O` [Ciprofloxacin, ciprofloxacin, reference compound], the MIC in series [1] (IFO3445, read-out: minimum growth inhibitory concentration (MIC)) was found to be 0.2 µg/mL (≈ 0.604 µM); in series [2] (IFO12293, read-out: minimum growth inhibitory concentration (MIC)), 0.39 µg/mL (≈ 1.18 µM); in series [3] (209P), 0.1 µg/mL (≈ 0.302 µM).

For `Nc1nc(-n2cc(C(=O)O)c(=O)c3cc(F)c(N4CC(N)C4)c(Cl)c32)c(F)cc1F` [Ex. 9, 7-(3-aminoazetidin-1-yl)-1-(6-amino-3,5-difluoropyridin-2-yl)-8-chloro-6-fluoro-4-oxo-1,4-dihydroquinoline-3-carboxylic acid], the “ear abnormality score (0 no abnormality, 1 very slight erythema, 2 well defined erythema, 3 moderate to severe erythema and edema)” value in series [4] worked out at 0 point. The “ear abnormality, occurrence” value in series [4] is 0/3. Also, the MIC in series [1] (setting [5]) is 0.05 µg/mL (≈ 0.114 µM); in series [2] (setting [6]), 0.025 µg/mL (≈ 0.0568 µM); in series [3] (S. aureus 209P), below 0.013 µg/mL.

Regarding `CNC1CN(c2c(F)cc3c(=O)c(C(=O)O)cn(-c4nc(N)c(F)cc4F)c3c2Cl)C1` [Ex. 10, 1-(6-amino-3,5-difluoropyridin-2-yl)-8-chloro-6-fluoro-7-(3-methylaminoazetidin-1-yl)-4-oxo-1,4-dihydroquinoline-3-carboxylic acid], the “ear abnormality score (0 no abnormality, 1 very slight erythema, 2 well defined erythema, 3 moderate to severe erythema and edema)” value in series [4] came to 0 point. For the same compound, in series [4], the “ear abnormality, occurrence” value is recorded as 0/3. Moreover, the MIC in series [1] (setting [5]) is 0.1 µg/mL (≈ 0.22 µM); in series [2] (setting [6]), 0.025 µg/mL (≈ 0.0551 µM); in series [3] (S. aureus 209P), below 0.013 µg/mL.

For `Nc1nc(-n2cc(C(=O)O)c(=O)c3cc(F)c(N4CC(O)C4)c(Cl)c32)c(F)cc1F` [Ex. 12, 3-hydroxyazetidine salt of 1-(6-amino-3,5-difluoropyridin-2-yl)-8-chloro-6-fluoro-7-(3-hydroxyazetidin-1-yl)-4-oxo-1,4-dihydroquinoline-3-carboxylic acid], the “ear abnormality score (0 no abnormality, 1 very slight erythema, 2 well defined erythema, 3 moderate to severe erythema and edema)” value in series [4] is 0 point. The “ear abnormality, occurrence” value in series [4] is on record as 0/3. Moreover, the values for the MIC in series [1] (setting [5]), in series [2] (setting [6]) and in series [3] (S. aureus 209P) were 0.39 µg/mL, below 0.013 µg/mL and below 0.013 µg/mL, respectively.

In the case of `Nc1nc(-n2cc(C(=O)O)c(=O)c3cc(F)c(N4CC(N)C4)c(Br)c32)c(F)cc1F` [Ex. 39, 7-(3-aminoazetidin-1-yl)-1-(6-amino-3,5-difluoropyridin-2-yl)-8-bromo-6-fluoro-4-oxo-1,4-dihydroquinoline-3-carboxylic acid], in series [4], the “ear abnormality score (0 no abnormality, 1 very slight erythema, 2 well defined erythema, 3 moderate to severe erythema and edema)” value came out at 0 point. Further, the “ear abnormality, occurrence” value in series [4] is 0/3. The MIC in series [1] (setting [5]) is 0.05 µg/mL (≈ 0.103 µM); in series [2] (setting [6]), 0.025 µg/mL (≈ 0.0516 µM); in series [3] (S. aureus 209P), below 0.013 µg/mL.

Regarding `C[C@H]1COc2c(N3CCN(C)CC3)c(F)cc3c(=O)c(C(=O)O)cn1c23` [Levofloxacin, levofloxacin, reference compound], the MIC in series [1] (setting [5]) stood at 0.39 µg/mL (≈ 1.08 µM); in series [2] (setting [6]), 0.39 µg/mL (≈ 1.08 µM); in series [3] (S. aureus 209P), 0.1 µg/mL (≈ 0.277 µM).

For the compound `C[C@@H]1CN(c2c(F)c(N)c3c(=O)c(C(=O)O)cn(C4CC4)c3c2F)C[C@H](C)N1` [Sparfloxacin, sparfloxacin, reference compound], the MIC was 0.78 µg/mL (≈ 1.99 µM) in series [1] (setting [5]), 0.2 µg/mL (≈ 0.51 µM) in series [2] (setting [6]) and 0.1 µg/mL (≈ 0.255 µM) in series [3] (S. aureus 209P).

For the compound `NC1CCN(c2nc3c(cc2F)c(=O)c(C(=O)O)cn3-c2ccc(F)cc2F)C1` (centres unmarked) [Tosufloxacin, tosufloxacin, reference compound], the MIC in series [1] (setting [5]) was 0.39 µg/mL (≈ 0.965 µM); in series [2] (setting [6]), 0.2 µg/mL (≈ 0.495 µM); in series [3] (S. aureus 209P) it was 0.05 µg/mL (≈ 0.124 µM).

Source of the values: patent US5998436A, “Pyridonecarboxylic acid derivatives or their salts and antibacterial agent comprising the same as the active ingredient” (Wakunaga Pharmaceuticals Co., Ltd., priority 1995, dated 1999).
